Laboratory results: patent publication US10913781B2, “Pepducin design and use” (Tufts Medical Center, Inc., priority 2011, dated 2021)
Read-outs that look alike come from different tables or passages of the source. Peptide text beside a SMILES is read from it. * marks the point of attachment. Palmitoyl = CCCCCCCCCCCCCCCC(=O)*

How the values were obtained:
PAR1 [1] = target: T1, PAR1 (Homo sapiens, UniProt P25116); assay: Migration of primary patient lung tumor cells; format: cell-based; set-up: endogenous in cells; host or cells: A549, HOP62, H1299, H522, H226, HOP92 lung carcinoma lines
T1 sequence (P25116 22-425): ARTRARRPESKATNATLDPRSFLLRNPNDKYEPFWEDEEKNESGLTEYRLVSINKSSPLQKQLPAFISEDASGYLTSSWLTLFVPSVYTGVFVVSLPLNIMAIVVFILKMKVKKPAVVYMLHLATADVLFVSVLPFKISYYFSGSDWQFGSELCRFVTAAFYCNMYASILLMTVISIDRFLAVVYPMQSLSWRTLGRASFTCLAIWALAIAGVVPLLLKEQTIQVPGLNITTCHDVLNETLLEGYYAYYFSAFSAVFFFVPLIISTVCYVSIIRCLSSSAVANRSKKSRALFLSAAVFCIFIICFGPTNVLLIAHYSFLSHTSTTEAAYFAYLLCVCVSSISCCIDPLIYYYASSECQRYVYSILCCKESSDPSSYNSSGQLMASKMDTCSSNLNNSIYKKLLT
Protocol: FIG. 12 illustrates that PAR1 is a promigratory factor in lung cancer cells. (A-F): Inhibition of lung cancer migration in adenocarcinomas A549, HOP62, H1299 and H522, H226 squamous, and HOP92 large cell using PAR1 pepducins. Pepducins at […] (P1pal-7, P1pal-10S, P1pal-i1-11, or negative control P1pal-19EE) were added to the lower well. (G): Cell from primary lung tumors or nonmalignant control were pretreated with PAR1 pepducins and migration was determined (*P<0.05, **P<0.01).
Further experiments were carried out to determine whether migration of the primary carcinoma cell lines isolated from lung tumors could be inhibited by PAR1 pepducins (FIG. 12G). […] Likewise, the RWJ-56110 small-molecule antagonist of PAR1 (Andrade-Gordon, et al., Proc. Natl Acad Sci USA, 96 (1999), pp. 12257-12262) suppressed up to 55% of the migration of primary lung tumor cells toward NIH-3T3 conditioned media. The PAR1 antagonist pepducin P1pal-7 and P1pal-i1-11 had no effect on the low-expressing PAR1 cell line derived from benign lung tissue, which migrated poorly (FIG. 12G).

[2] = Pharmacokinetics of PAR1 pepducins in CF-1 mice, plasma LC/MS/MS; format: in vivo, mouse; conditions: for Cmax: read-out: Peak plasma level
Protocol: FIG. 14 illustrates pharmacokinetics of PAR1 pepducins. (A): CF-1 mice were injected subcutaneously with P1pal-7 (3 mg/kg, open circles), P1pal-7 (10 mg/kg, closed circles), P1pal-10S (10 mg/kg, gray circles), or P1pal-i1-11 (10 mg/kg, open squares) in 20% dimethyl sulfoxide and blood was collected at indicated time points (n=3). Pepducin levels in plasma were quantified with LC/MS/MS. (B): Daily (D1 to D6) plasma levels of P1pal-7 after subcutaneous injection of 10 mg/kg P1pal-7 were measured at 1 hour (open circles) and 24 hours (open squares).
Pharmacokinetics of plasma levels of P1pal-7, P1pal-10S, and P1pal-i1-11 at 30 minutes, and at 1, 2, 4, 6, 8, and 16 hours was measured by LC/MS/MS to determine steady-state pepducin drug levels and the rate of elimination from mice. Subcutaneous injections of P1pal-7 (3 mg/kg or 10 mg/kg) into wild-type CF-1 mice (25 to 30 g) was followed by blood collection at various time points from the vena cava. […] Residual P1pal-7 levels were 10 nmol/L at the 16-hour time point. After the 4-hour plateau, the elimination rate was linear from 4 to 16 hours. The peak plasma level of 3 mg/kg P1pal-7 reached 0.6 μmol/L at 2 hours and elimination was linear between 2 hours and 16 hours. P1pal-10S (10 mg/kg) gave similar peak plasma level of 1.0 μmol/L as P1pal-7 (10 mg/kg) at 1 hour.
Lastly, the peak plasma level of P1pal-7 (10 mg/kg) was measured before and 1 hour after once-daily subcutaneous injection over 6 days to determine whether the peak plasma levels were consistent on daily administration.

A549 xenografts = format: in vivo, mouse; conditions: mouse, in vivo
Protocol: (§1) FIG. 13 illustrates that monotherapy with PAR1-i3 pepducins inhibits tumor progression of A549 xenografts. (A) and (B): A549 mice treated with vehicle, P1pal-7, P1pal-i1-11, P1pal-10S, X1/2-i1, X1/2-i3, or Avastin. Each time point represents the mean±SE. (C): Final tumor volume at the completion of the experiment was calculated as a percentage of untreated vehicle control. (D): Serum-starved A549 adenocarcinoma cells were pretreated with P1pal-7, P1pal-10S, P1pal-i1-11, vehicle, or PD98059 and stimulated with thrombin. VEGF production was assessed by enzyme-linked immunosorbent assay. Data are expressed as mean±SD (*P<0.05, **P<0.01).
PAR1 expression level is correlated with reduced survival of patients with NSCLC. To define the relative importance of PAR1 in lung tumor progression, in vivo mouse models were used. […] An A549 lung adenocarcinoma xenograft model in nude mice was used to evaluate monotherapy with P1pal-7, P1pal-10S, P1pal-i1-11, or the VEGF antagonist Avastin.

[3] = tested on: A549, HOP62, and HOP92 lung carcinoma cell lines; assay: Cytotoxicity/cell viability of lung carcinoma cells (MIT assay); format: cell-based, human; conditions: 3-day period
PAR1 [4] = target: T1, PAR1; assay: ERK1/2 phosphorylation in A549 cells (thrombin or […]), Western blot; format: cell-based; set-up: endogenous in cells; host or cells: A549, HOP62, H1299, H522, H226, HOP92 lung carcinoma lines
Protocol: FIG. 9 illustrates that differential inhibition of PAR1-ERK activation by i3- and i1-derived PAR1 pepducins. (A-C): Western blots of lysates from A549 cells untreated, or treated with thrombin, SLIGKV (SEQ ID NO:29), or AYPGKF (SEQ ID NO:5). Indicated samples were pretreated with various concentrations (0.1 to 3 μmol/L) of P1pal-7, P1pal-10S, or P1pal-i1-11 before stimulation and immunoblotted with anti-phospho-ERK. (D-F): Quantification of the Western blots in (A-C) were conducted by densitometry and results are expressed relative to maximum (fold max) phosphorylation of pERK.
(B): A549 cells stimulated with 10 μM […] over 2 h. A549 cells pretreated with 0.1 μM P1pal-7 and stimulated with 10 μM […] (SEQ ID NO:30) for 5 min. Total ERK was used as a loading control.
Last, there has been a great deal of interest in understanding the mechanism of PAR1-mediated activation of MAP kinase cascade and PAR1-dependent cellular growth and differentiation, proliferation and gene transcription. […] The effects of i1 versus i3 PAR1 pepducins on ERK1/2 activation were examined in the A549 lung adenocarcinoma cell line. […] Inhibition experiments with a range of pepducin concentrations (0.1-3 μM) were conducted. […] The […] (SEQ ID NO:30) peptide gave a rapid and transient ERK1/2 phosphorylation signal that peaked at 5-15 min after stimulation. […] To determine the specificity of the PAR1 pepducin inhibitors, their effects on the closely related PAR2 and PAR4 receptors were also tested.

VEGF-A production = assay: Thrombin-dependent VEGF-A production in A549 cells (ELISA); format: cell-based, human; conditions: A549, 18 hours thrombin treatment
Protocol: as §1
Because the i3-based P1pal-7 pepducin had similar efficacy as Avastin in suppressing lung tumor growth of A549 xenografts, VEGF-A production was measured in the A549 tumor cells after 18 hours thrombin treatment. […] Unlike in ovarian cancer, no increase was found in PAR1-mediated IL-8 production in A549 cells, consistent with the observed lack of efficacy of CXCR1/2 pepducins in the A549 xenograft models. These xenograft data provide support for the role of a novel PAR1-ERK1/2-VEGF paracrine pathway that is an effective therapeutic target in the A549 adenocarcinoma lung cancer model.

Structure (SMILES)	Effect on migration of low-expressing PAR1 cell line derived from benign lung tissue (PAR1 [1])	Duration of peak plasma level ([2]; 10 mg/kg s.c.) [h]	Cmax ([2]; CF-1, mouse, plasma, sc, 3 mg/kg s.c.) [nM]	level at time molar at 6 h ([2]; CF-1, mouse, plasma, sc, 10 mg/kg s.c., read-out: Plasma level at the 6-hour time point) [nM]	level at time molar at 16 h ([2]; CF-1, mouse, plasma, sc, 10 mg/kg s.c., read-out: Residual plasma level at the 16-hour time point) [nM]	Accumulation in plasma after daily dosing ([2]; daily subcutaneous dosing, mouse)	Cmax ([2]; mouse, plasma, sc, 10 mg/kg s.c., CF-1 mice) [nM]	Inhibition of tumor progression/growth (final tumor volume vs vehicle) (A549 xenografts) [%]	Sensitivity of A549 cells (cytotoxicity) [3]	Block of PRSFLLRN-induced phospho-ERK signal (PAR1 [4]; 0.1 μM pepducin, 10 μM PRSFLLRN, 5 min, A549)	Effect on thrombin-induced ERK1/2 phosphorylation (PAR1 [4]; A549 cells, pepducin 0.1-3 μM)	Effect on thrombin-dependent VEGF-A production (VEGF-A production)	Inhibition of migration of primary lung tumor cells (PAR1 [1]; primary lung tumors)
CCCCCCCCCCCCCCCC(=O)N[C@@H](CCCCN)C(=O)N[C@@H](CCCCN)C(=O)N[C@@H](CO)C(=O)N[C@@H](CCCNC(=N)N)C(=O)N[C@@H](C)C(=O)N[C@@H](CC(C)C)C(=O)N[C@@H](Cc1ccccc1)C(N)=O [P1pal-7] (Palmitoyl-KKSRALF-NH2)	no effect	4	600	200	10	does not accumulate in plasma	1100	75	most sensitive	completely block	complete inhibition	completely blocked	–
NCC[C@H](NC(=O)[C@H](Cc1ccc(F)c(F)c1)NC(=O)Nc1ccc2c(CN3CCCC3)cn(Cc3c(Cl)cccc3Cl)c2c1)C(=O)NCc1ccccc1 [RWJ-56110, reference compound]	–	–	–	–	–	–	–	–	–	–	–	–	up to 55%
